Molecules are shown by their SMILES. Structures can show the parent of a compound that is named as a salt.

A short description of the data set: Plasma stability assay in human plasma (LC-MS/MS). In kind it is in vitro ADME. The conditions noted are these: 37° C., 3 μM test compound, time points 0-240 min, read-out: Plasma t1/2 (converted). The procedure:
Procaine and procainamide were purchased from Sigma Aldrich. HPLC-grade acetonitrile, water, methanol, and formic acid were purchased from Fisher Scientific. Human plasma (Cat. No. […]2N) was obtained from BIOIVT, and PBS (1× Dulbecco's, pH 7.4) from Thermo Fisher Scientific.
Test compounds were dissolved in DMSO to make a stock solution of 10 mM and then diluted to 500 μM in buffer or 70% methanol. Human plasma was thawed at ambient temperature and aliquoted (994.0 μL) to a 1.5 mL Eppendorf tube in duplicates (vials A and B) for each compound. The plasma was incubated at 37° C. for 10 min in an incubator shaker at 150 RPM; the reaction was initiated by addition of the test compound (6.0 μL), followed by vortex mixing. The total reaction volume was 1000 μL, the final organic solvent concentrations were […] (when 70% methanol was used for dilution) and 0.03% DMSO, and the final concentration of the test compound was 3 μM. The spiked plasma samples were incubated at 37° C. for 4 h. The reactions were terminated at time point 0, 15, 30, 60, 120, 180, and 240 min by taking a 100 μL aliquot from the test incubation mixture and immediately quenching it by adding it into ice-cold acetonitrile or methanol (150 μL) containing 2 μM internal standard (ISTD), followed by vortex mixing. The ISTD was d5-7-ethoxy coumarin. The samples were then centrifuged at 15000 RPM for 25 min at 4° C., and the supernatant was transferred to an LC-MS vial for analysis by LC-MS/MS. Each time point was tested in duplicates followed by in-between blank washes to avoid carryover and to equilibrate the column.
Procaine (poor plasma stability) and procainamide (good plasma stability) were used as controls at the same concentration as that of the test compound. These controls were run in parallel to test the assay's competency. Matrix blank was prepared by adding acetonitrile or methanol containing ISTD to plasma samples without any of the test or control compounds. Also, an additional control sample was made to simply monitor compound degradation in PBS buffer.
Below is a summary of samples prepared for a given test compound in a typical plasma stability assay: • Test compound (TC): 994 μL human plasma+6.0 μL TC (Vial A) • 994 μL human plasma+6.0 μL TC (Vial B) • Control: 596 μL human plasma+3.6 μL (procaine+procainamide) • Blank matrix: 500 μL PBS buffer+100 μL human plasma • Additional control: 142 μL PBS buffer+0.9 μL TC • Quenching mixture: 150 μL acetonitrile or methanol with ISTD (2 μM) • Final volume: 250 μL (100 μL from the incubation mixture+150 μL quenching mixture; final ISTD conc.: 1.2 μM)
LC-MS/MS analysis was performed using Agilent 1260 Infinity II HPLC, coupled with an Agilent G6460 triple quadrupole mass spectrometer (Agilent Technologies, USA). The data were acquired and processed using the Agilent 6460 Quantitative Analysis data processing software.
Reverse-phase HPLC separation for each compound was achieved on an Agilent InfinityLab Poroshell 120 C18 column (2.1×50 mm, 2.7 μm) with a mobile phase composed of methanol/water with 0.1% formic acid or acetonitrile/water with 0.1% formic acid at a flow rate of 0.5 mL/min. Each method was developed in the presence of the ISTD. The column temperature was maintained at 40° C. The detection was operated using the Agilent Jet-Stream electrospray positive ionization under the multiple reaction monitoring (MRM) mode. The mass spec conditions were as follows: dwell time 100 ms; gas flow 10 L/min; nebulizer pressure 45 psi; delta EMV 200 V.
Plots of time (x-axis) vs. the natural logarithm of percent parent remaining (y-axis) were subsequently constructed to determine the slope. Finally, the plasma stability was evaluated using the following equation: […]

For `C/C(=N\OC(=O)N(C)C[C@@H]1CCCN1)[C@H]1CC[C@H]2[C@@H]3CCC4C[C@H](O)CC[C@]4(C)[C@H]3CC[C@]12C` (stereo partly drawn) [13c, (E)-1-((3R,8R,9S,10S,13S,14S,17S)-3-hydroxy-10,13-dimethylhexadecahydro-1H-cyclopenta[a]phenanthren-17-yl)ethan-1-one O-(methyl(((S)-pyrrolidin-2-yl)methyl)carbamoyl)oxime trifluoroacetate], the half-life at 3 μM is < 0.1 h.
As for `C/C(=N\OC(=O)N(C)C[C@@H]1CCCN1)[C@H]1CC[C@H]2[C@@H]3CC=C4C[C@@H](O)CC[C@]4(C)[C@H]3CC[C@]12C` [13b, (E)-1-((3S,8S,9S,10R,13S,14S,17S)-3-hydroxy-10,13-dimethyl-2,3,4,7,8,9,10,11,12,13,14,15,16,17-tetradecahydro-1H-cyclopenta[a]phenanthren-17-yl)ethan-1-one O-(methyl(((S)-pyrrolidin-2-yl)methyl)carbamoyl)oxime trifluoroacetate], the half-life at 3 μM is < 0.1 h.
As for `C/C(=N\OC(=O)N(C)C[C@@H]1CCCN1)[C@H]1CC[C@H]2[C@@H]3CCC4C[C@@H](O)CC[C@]4(C)[C@H]3CC[C@]12C` (stereo partly drawn) [13a, (E)-1-((3S,8R,9S,10S,13S,14S,17S)-3-hydroxy-10,13-dimethylhexadecahydro-1H-cyclopenta[a]phenanthren-17-yl)ethan-1-one O-(methyl(((S)-pyrrolidin-2-yl)methyl)carbamoyl)oxime trifluoroacetate], the half-life at 3 μM is < 0.1 h.
As to `CNCCN(C)C(=O)O/N=C(\C)[C@H]1CC[C@H]2[C@@H]3CC=C4C[C@@H](O)CC[C@]4(C)[C@H]3CC[C@]12C` [12b, (E)-1-((3S,8S,9S,10R,13S,14S,17S)-3-hydroxy-10,13-dimethyl-2,3,4,7,8,9,10,11,12,13,14,15,16,17-tetradecahydro-1H-cyclopenta[a]phenanthren-17-yl)ethan-1-one O-(methyl (2-(methylamino)ethyl)carbamoyl)oxime trifluoroacetate], the half-life at 3 μM was 1.23 h.
Turning to `CNCCN(C)C(=O)O/N=C(\C)[C@H]1CC[C@H]2[C@@H]3CCC4C[C@H](O)CC[C@]4(C)[C@H]3CC[C@]12C` (stereo partly drawn) [12c, (E)-1-((3R,8R,9S,10S,13S,14S,17S)-3-hydroxy-10,13-dimethylhexadecahydro-1H-cyclopenta[a]phenanthren-17-yl)ethan-1-one O-(methyl (2-(methylamino)ethyl)carbamoyl)oxime trifluoroacetate], the half-life at 3 μM is 1.39 h.
Regarding `CNCCN(C)C(=O)O/N=C(\C)[C@H]1CC[C@H]2[C@@H]3CCC4C[C@@H](O)CC[C@]4(C)[C@H]3CC[C@]12C` (stereo partly drawn) [12a, (E)-1-((3S,8R,9S,10S,13S,14S,17S)-3-hydroxy-10,13-dimethylhexadecahydro-1H-cyclopenta[a]phenanthren-17-yl)ethan-1-one O-(methyl (2-(methylamino)ethyl)carbamoyl) oxime trifluoroacetate], the half-life at 3 μM was 1.45 h.

Source of the values: patent US20250026781A1, “Prodrugs of Neurosteroid Analogs and Uses Thereof” (Emory University, priority 2021, published 2025).
